Source: the supplement of paper PMC10307832

Legend:
Assay in all cases: relative viability (nuclei count vs DMSO), 5 days (fraction); higher = more cells survive
[1] = compound: O=c1[nH]cc(F)c(=O)[nH]1 [5-Fluorouracil] + C[C@@H](Oc1cc(-c2cnn(C3CCNCC3)c2)cnc1N)c1c(Cl)ccc(F)c1Cl [Crizotinib] (partner 1 µM)
Outline: (§1)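 Cells from lung cancer lines were seeded into 1536-well plates and, one day later, dosed by pin tool. Treatments were either a single drug or a fixed dose of an anchor drug with five library-drug doses (not always all listed) in √10 steps. After 5 days, nuclei were stained in a one-step fixation (final 0.05% Triton X-100, 1% formaldehyde, 1 ug/ml Hoechst) and counted on 4× images, and relative viability is the treated-to-vehicle nuclei ratio, as the median of duplicate plates.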

Sulindac + Pemetrexed = compound: CC1=C(CC(=O)O)c2cc(F)ccc2/C1=C\c1ccc([S+](C)[O-])cc1 [Sulindac] + Nc1nc2[nH]cc(CCc3ccc(C(=O)N[C@@H](CCC(=O)O)C(=O)O)cc3)c2c(=O)[nH]1 [Pemetrexed] (partner 0.2 µM)
Outline: as §1

[2] = compound: CN[C@@H]1C[C@H]2O[C@@](C)([C@@H]1OC)n1c3ccccc3c3c4c(c5c6ccccc6n2c5c31)C(=O)NC4 [Staurosporine] + Cc1nc(NC(=O)N2CCC[C@H]2C(N)=O)sc1-c1ccnc(C(C)(C)C(F)(F)F)c1 [Alpelisib] (partner 2 µM)
Outline: as §1

[3] = compound: CN[C@@H]1C[C@H]2O[C@@](C)([C@@H]1OC)n1c3ccccc3c3c4c(c5c6ccccc6n2c5c31)C(=O)NC4 [Staurosporine] + O=C(CCCCCCC(=O)Nc1ccccc1)NO [Vorinostat] (partner 1 µM)
Outline: as §1

Question: What does the source list for UMC-11?
Answer: relative viability ([1]; first compound 0.02 µM): 0.52; relative viability ([1]; first compound 0.2 µM): 0.441; relative viability ([1]; first compound 0.6325 µM): 0.303; relative viability ([1]; first compound 2 µM): 0.232; relative viability (Sulindac + Pemetrexed; first compound 0.08 µM): 0.853; relative viability (Sulindac + Pemetrexed; first compound 0.253 µM): 0.808; relative viability (Sulindac + Pemetrexed; first compound 0.8 µM): 0.582; relative viability (Sulindac + Pemetrexed; first compound 2.53 µM): 0.747; relative viability (Sulindac + Pemetrexed; first compound 8 µM): 0.868; relative viability ([2]; first compound 0.005 µM): 0.882; relative viability ([2]; first compound 0.01581 µM): 0.427; relative viability ([2]; first compound 0.05 µM): 0.461; relative viability ([2]; first compound 0.1581 µM): 0.145; relative viability ([2]; first compound 0.5 µM): 0.0643; relative viability ([3]; first compound 0.005 µM): 0.343; relative viability ([3]; first compound 0.01581 µM): 0.136; relative viability ([3]; first compound 0.05 µM): 0.0975; relative viability ([3]; first compound 0.1581 µM): 0.0825; relative viability ([3]; first compound 0.5 µM): 0.066
